Laboratory results from US6576190B1, “Method and apparatus for sterilizing and disinfecting bedclothes using ultraviolet rays and ozone” (Bioneer Corporation, priority 1999, dated 2003).

Experiments:
[1] = test system: Escherichia coli DH12S; experiment: Test for sterilizing microorganisms, ozone exposure of agar culture; format: cell-based; conditions: E. coli, ozone 70 ppm, humidity 50%, no direct UV
Source text: (§1) The microorganisms used for the sterilization test were Escherichia coli DH12S, Staphylococcus aureus KCTC 1621 and Candida albicans KCTC 7965, which are known as pathogenic microorganisms. An UV/O3 lamp ([…]) was used as the generator for generating ultraviolet rays and ozone.
(§2) Each of the microorganisms was cultivated on appropriate culture medium used commonly: Escherichia coli was cultivated on LB culture medium, Staphylococcus aureus was cultivated on Tryptic Soy culture medium; and Candida albicans was cultivated on YM culture medium. A sample of the microorganism was prepared as follows: After each of the microorganisms was cultivated on agar culture medium, one colony was taken. And then the colony was inoculated into broths of 5 ml, which was cultivated for two hours. The sample prepared as mentioned above was kept in cold storage for the following use. The broths used for cultivation were diluted gradually from an undiluted solution to 10-8, and then they were painted over the agar culture medium. One control was obtained from each of the diluted samples, and seven samples for test were obtained from each of the diluted samples. The control and samples were subject to pre-incubation in the incubator with the temperature of 37° C. for 30 minutes, which was used for sterilization test.
(§3) The concentration of the ozone in the sterilizing and disinfecting room reached 50 ppm within two or three minutes. And the concentration of the ozone was adjusted so that it was maintained to 70 ppm.
(§4) The humidity was maintained to 50%. The agar culture medium was placed on several position where it was not exposed to the ultraviolet rays and it had good ventilation. One agar culture medium corresponding to the bedclothes as a test sample was taken every ten minutes after the generator for generating the ultraviolet rays and the ozone was operated. The agar culture medium was cultivated together with the control sample in the incubator with the temperature of 37° C. for 48 hours. […] The number of the real microorganisms and the number of the surviving microorganisms were added together taking the number of the colony and the dilution rate of each sample into account. The test as mentioned above was repeated three times for the purpose of obtaining the statistical effectiveness.

[2] = test system: Candida albicans KCTC 7965; experiment: as above; format: cell-based; conditions: C. albicans, ozone 70 ppm, humidity 50%, no direct UV
Source text: as §1, §2, §3, §4

[3] = test system: Staphylococcus aureus KCTC 1621; experiment: as above; format: cell-based; conditions: S. aureus, ozone 70 ppm, humidity 50%, no direct UV
Source text: as §1, §2, §3, §4

[4] = test system: house dust mites (Dermatophagoides farinae, Dermatophagoides pterohyssinus and Tyrophagus putrescentiae mixed); experiment: Test for killing mites; format: in vivo; conditions: ozone 50 ppm, humidity 72%, 2 hours, no direct UV
Source text: Mites used for test was the house dust mites (samples containing Dermatophagoides farinae, Dermatophagoides pterohyssinus and Tyrophagus putrescentiae mixed up one another were used) which were generally known as primary cause of allergy, which was distributed from the parasitology class of the medical college of Yonsei University in Korea. After the opening the lid of the tube containing twenty mites, the mites were exposed to the environment with the ozone of 50 ppm and the humidity of 72% for 2 hours while the mites were not exposed directly to the ultraviolet rays. After exposition of the mites to the ozone for a given time period, the number of the surviving mites and the number of the dead mites were counted by means of a microscopic examination.

O=[O+][O-] [ozone]
Number of surviving microorganisms (surviving colonies) ([1]; exposure 10 min.): 11,000
Number of surviving microorganisms (surviving colonies) ([1]; exposure 20 min.): 2,700
Number of surviving microorganisms (surviving colonies) ([1]; exposure 30 min.): 559
Number of surviving microorganisms (surviving colonies) ([1]; exposure 40 min.): 270
Number of surviving microorganisms (surviving colonies) ([1]; exposure 50 min.): 101
Number of surviving microorganisms (surviving colonies) ([1]; exposure 60 min.): 52
Number of surviving microorganisms (surviving colonies) ([2]; exposure 10 min.): 12,400
Number of surviving microorganisms (surviving colonies) ([2]; exposure 20 min.): 2,840
Number of surviving microorganisms (surviving colonies) ([2]; exposure 30 min.): 960
Number of surviving microorganisms (surviving colonies) ([2]; exposure 40 min.): 388
Number of surviving microorganisms (surviving colonies) ([2]; exposure 50 min.): 192
Number of surviving microorganisms (surviving colonies) ([2]; exposure 60 min.): 118
Number of surviving microorganisms (surviving colonies) ([3]; exposure 10 min.): 1,220,000
Number of surviving microorganisms (surviving colonies) ([3]; exposure 20 min.): 101,000
Number of surviving microorganisms (surviving colonies) ([3]; exposure 30 min.): 9,100
Number of surviving microorganisms (surviving colonies) ([3]; exposure 40 min.): 1,260
Number of surviving microorganisms (surviving colonies) ([3]; exposure 50 min.): 345
Number of surviving microorganisms (surviving colonies) ([3]; exposure 60 min.): 96
Killing of young mites [4]: all of the young mites were killed
State of surviving large mites [4]: a few surviving large mites were not able to be active normally, which were dead as times went by
Number of dead mites ([4]; twenty mites, microscopic examination): most of the mites (for example, seventeen mites) were killed
